Assay results published in patent US20090149455A1, “Use of Triazolopyrimidines for Controlling Plant Diseases on Legumes” (Bayer CropScience AG, priority 2005, published 2009).
Like-named read-outs stand apart in the source and are kept apart here.

Experiment: log p
Format: physicochemical

Structure (SMILES) | log p | log p (read-out: log p)
C=C(C)CN(C)c1c(-c2c(F)cc(C(F)(F)F)cc2Cl)c(Cl)nc2ncnn12 [Example 96] | 4.05 | –
CCN(CC)c1c(-c2c(F)cc(F)cc2F)c(Cl)nc2ncnn12 [Example 26] | 3.05 | –
CNc1c(-c2ccccc2F)c(Cl)nc2ncnn12 [Example 86] | 1.86 | –
CN(C)c1c(-c2c(F)c(F)c(F)c(F)c2F)c(Cl)nc2ncnn12 [Example 155] | 2.74 | –
C=C(C)CNc1c(-c2ccccc2F)c(Cl)nc2ncnn12 [Example 91] | 2.48 | –
CC(C)C(C)Nc1c(-c2ccccc2)c(Cl)nc2ncnn12 (stereo not shown) [Example 74] | 3.14 | –
CC(Nc1c(-c2c(Cl)cc(OC(F)(F)F)cc2Cl)c(Br)nc2ncnn12)C(F)(F)F (stereo not shown) [Example 65] | 3.92 | –
CC(C)CNc1c(-c2ccccc2)c(Cl)nc2ncnn12 [Example 127] | 2.79 | –
CCCNc1c(-c2ccccc2F)c(Cl)nc2ncnn12 [Example 150] | 2.43 | –
CSc1cc(F)cc(F)c1-c1c(Cl)nc2ncnn2c1N[C@@H](C)C(F)(F)F [Example 38] | 3.17 | –
C[C@H](Nc1c(-c2cc(SC(F)(F)F)ccc2Cl)c(Cl)nc2ncnn12)C(F)(F)F [Example 50] | 3.78 | –
C[C@H](Nc1c(-c2ccccc2Cl)c(Cl)nc2ncnn12)C(F)(F)F [Example 58] | 2.87 | –
CC(C)(C)Nc1c(-c2c(F)cc(F)cc2F)c(Cl)nc2ncnn12 [Example 154] | 3.05 | –
C[C@@H](Nc1c(-c2c(F)cc(F)cc2F)c(Cl)nc2ncnn12)C(F)(F)F [Example 60] | 2.84 | –
CC(C)C(C)Nc1c(-c2c(F)cc(F)cc2F)c(Cl)nc2ncnn12 (stereo not shown) [Example 3] | 3.2 | –
C=C(C)CNc1c(-c2c(F)c(F)c(F)c(F)c2F)c(Cl)nc2ncnn12 [Example 104] | 3.09 | –
C[C@H](Nc1c(-c2cccc3c2OC(F)(F)O3)c(Cl)nc2ncnn12)C(F)(F)F [Example 55] | 3.16 | –
CC(Nc1c(-c2c(F)cc(F)cc2F)c(Cl)nc2ncnn12)C(C)(C)C (stereo not shown) [Example 67] | 3.53 | –
CCC(C)Nc1c(-c2ccc(F)cc2F)c(Cl)nc2ncnn12 (stereo not shown) [Example 6] | 2.85 | –
CC(C)[C@H](C)Nc1c(-c2c(F)cc(F)cc2F)c(Cl)nc2ncnn12 [Example 77] | 3.17 | –
CCNc1c(-c2ccccc2F)c(Cl)nc2ncnn12 [Example 23] | 2.13 | –
CCC(C)Nc1c(-c2ccc(Cl)cc2Cl)c(Cl)nc2ncnn12 (stereo not shown) [Example 8] | 3.54 | –

Structure (SMILES) | log p | log p (read-out: log p)
CC(C)(Nc1c(-c2c(F)c(F)c(F)c(F)c2F)c(Cl)nc2ncnn12)C(F)(F)F [Example 17] | 3.75 | –
C[C@H](Nc1c(-c2ccc(C(F)(F)F)cc2F)c(Cl)nc2ncnn12)C(F)(F)F [Example 45] | 3.33 | –
CC(Nc1c(-c2c(F)cc(F)cc2F)c(Cl)nc2ncnn12)C(F)(F)F (stereo not shown) [Example 29] | 2.88 | –
CC(Nc1c(-c2c(F)cc(C(F)(F)F)cc2F)c(Cl)nc2ncnn12)C(F)(F)F (stereo not shown) [Example 56] | 3.09 | –
CCC(C)Nc1c(-c2ccccc2)c(Cl)nc2ncnn12 (stereo not shown) [Example 7] | 2.78 | –
CCC(C)Nc1c(-c2c(F)cccc2F)c(Cl)nc2ncnn12 (stereo not shown) [Example 5] | 2.71 | –
CC(Nc1c(-c2c(F)cccc2Cl)c(Cl)nc2ncnn12)C(F)(F)F (stereo not shown) [Example 30] | 2.85 | –
C=C(C)CN(CC)c1c(-c2cccc(C(F)(F)F)c2Cl)c(Cl)nc2ncnn12 [Example 102] | 4.12 | –
CC1CCN(c2c(-c3c(F)cc(F)cc3F)c(Cl)nc3ncnn23)CC1 [Example 156, 5-Chloro-7-(4-methylpiperidin-1-yl)-6-(2,4,6-trifluorophenyl)[1,2,4]triazolo[1,5-a]-pyrimidine] | – | 3.6
CC(C)C(C)Nc1c(-c2c(F)cc(F)cc2F)c(Cl)nc2ncnn12 (stereo not shown) [Example 73] | 3.2 | –
Fc1c(F)c(F)c(-c2c(Cl)nc3ncnn3c2NCC(F)(F)F)c(F)c1F [Example 113] | 3 | –
C[C@H](Nc1c(-c2c(Cl)cc(C(F)(F)F)cc2Cl)c(Cl)nc2ncnn12)C(F)(F)F [Example 36] | 3.79 | –
CC(C)Nc1c(-c2ccccc2)c(Cl)nc2ncnn12 [Example 147] | 2.45 | –
CC(Nc1c(-c2ccc(F)c(Cl)c2)c(Cl)nc2ncnn12)C(F)(F)F (stereo not shown) [Example 43] | 3.18 | –
CCC(C)CNc1c(-c2c(F)cc(F)cc2F)c(Cl)nc2ncnn12 (stereo not shown) [Example 11] | 3.26 | –
Fc1cccc(F)c1-c1c(Cl)nc2ncnn2c1N1CCCO1 [Example 157] | 2.07 | –
C=C(C)CN(C)c1c(-c2ccc(F)cc2F)c(Cl)nc2ncnn12 [Example 98] | 3.21 | –
Cc1nc2ncnn2c(N[C@H](C)C(C)C)c1-c1c(F)cccc1Cl [Example 79] | 2.7 | –
CC(Nc1c(-c2c(F)cccc2Cl)c(Cl)nc2ncnn12)C(C)(C)C (stereo not shown) [Example 69] | 3.58 | –
CC(Nc1c(-c2ccc(F)cc2Cl)c(Cl)nc2ncnn12)C(F)(F)F (stereo not shown) [Example 46] | 3.04 | –
C[C@H](Nc1c(-c2ccc(F)cc2F)c(Cl)nc2ncnn12)C(F)(F)F [Example 52] | 2.81 | –

Next, values leading:

log p | log p (read-out: log p) | Structure (SMILES)
2.19 | – | Fc1ccc(-c2c(Cl)nc3ncnn3c2N2CCOCC2)c(F)c1 [Example 195]
3.11 | – | Fc1ccc(-c2c(Cl)nc3ncnn3c2N2CCCCO2)c(Cl)c1 [Example 204]
2.87 | – | Cc1cc(C)n(-c2c(-c3c(F)cccc3Cl)c(Cl)nc3ncnn23)n1 [Example 268]
4.37 | – | CC1CCN(c2c(-c3c(F)cc(C(F)(F)F)cc3Cl)c(Cl)nc3ncnn23)CC1 [Example 182]
3.54 | – | CC1CCN(c2c(-c3ccc(F)cc3F)c(Cl)nc3ncnn23)CC1 [Example 190]
4.79 | – | CC1CC(C)CN(c2c(-c3c(F)cc(C(F)(F)F)cc3Cl)c(Cl)nc3ncnn23)C1 (stereo not shown) [Example 180]
3.3 | – | CC1=CCCN(c2c(-c3ccc(F)cc3F)c(Cl)nc3ncnn23)C1 [Example 192]
3.11 | – | Fc1c(F)c(F)c(-c2c(Cl)nc3ncnn3c2N2CCCC2)c(F)c1F [Example 207]
2.68 | – | Fc1ccccc1-c1c(Cl)nc2ncnn2c1N1CCSCC1 [Example 165]
2.92 | – | Fc1cc(F)c(-c2c(Cl)nc3ncnn3c2N2CCCCO2)c(F)c1 [Example 201]
3.5 | – | Fc1cc(C(F)(F)F)cc(Cl)c1-c1c(Cl)nc2ncnn2c1N1CCCC1 [Example 176]
3.47 | – | CC1CCN(c2c(-c3ccccc3)c(Cl)nc3ncnn23)CC1 [Example 253]
3.01 | – | CC1CCN(c2c(-c3c(F)cccc3Cl)c(Cl)nc3ncnn23)NC1 (stereo not shown) [Example 267]
2.09 | – | Fc1ccccc1-c1c(Cl)nc2ncnn2c1N1CCOCC1 [Example 200]
3.6 | – | CC1CCCCN1c1c(-c2ccccc2Cl)c(Cl)nc2ncnn12 (stereo not shown) [Example 248]
3.01 | – | Fc1ccccc1-c1c(Cl)nc2ncnn2c1N1CCCCC1 [Example 164]
2.49 | – | Fc1ccccc1-c1c(Cl)nc2ncnn2c1N1CCCC1 [Example 163]
3.34 | – | Fc1ccc(-c2c(Cl)nc3ncnn3c2N2CCC(C(F)(F)F)CC2)c(F)c1 [Example 193]
3.8 | – | CC1(C)CCN(c2c(-c3ccc(F)cc3F)c(Cl)nc3ncnn23)CC1 [Example 191]
2.8 | – | Cc1cc(C)c(-c2c(Cl)nc3ncnn3c2N2CCOCC2)c(C)c1 [Example 161]
3.44 | – | CC1CCCCN1c1c(-c2ccc(F)cc2F)c(Cl)nc2ncnn12 (stereo not shown) [Example 188]
2.72 | – | Clc1ccccc1-c1c(Cl)nc2ncnn2c1N1CCCC1 [Example 247]
3.1 | – | CC1CCCN1c1c(-c2ccccc2Cl)c(Cl)nc2ncnn12 (stereo not shown) [Example 255]

log p | log p (read-out: log p) | Structure (SMILES)
2.94 | – | Fc1ccc(-c2c(Cl)nc3ncnn3c2N2CC=CCC2)c(F)c1 [Example 186]
2.84 | – | Fc1ccc(-c2c(Cl)nc3ncnn3c2N2CCCCO2)c(F)c1 [Example 205]
3.37 | – | CC1CCN(c2c(-c3c(F)cccc3Cl)c(C#N)nc3ncnn23)CC1 [Example 280]
3.35 | – | CC1CNN(c2c(-c3c(F)cc(F)cc3F)c(Cl)nc3ncnn23)CC1C (stereo not shown) [Example 270]
2.99 | – | CC1CCCN1c1c(-c2ccc(F)cc2F)c(Cl)nc2ncnn12 (stereo not shown) [Example 184]
2.2 | – | Clc1ccccc1-c1c(Cl)nc2ncnn2c1N1CCCN1 [Example 263]
3.41 | – | Fc1cc(F)c(-c2c(Cl)nc3ncnn3c2N2CCC(C(F)(F)F)CC2)c(F)c1 [Example 160]
3.23 | – | Fc1ccccc1-c1c(Cl)nc2ncnn2c1N1CCC(C(F)(F)F)CC1 [Example 166]
3.3 | – | CC1CNN(c2c(-c3ccccc3Cl)c(Cl)nc3ncnn23)CC1C (stereo not shown) [Example 278]
3.1 | – | CC1C=NN(c2c(-c3ccccc3Cl)c(Cl)nc3ncnn23)CC1C (stereo not shown) [Example 277]
3 | – | CC1CCN(c2c(-c3ccccc3Cl)c(Cl)nc3ncnn23)NC1 (stereo not shown) [Example 271]
2.79 | – | CC1C=NN(c2c(-c3ccccc3Cl)c(Cl)nc3ncnn23)CC1 (stereo not shown) [Example 272]
2.69 | – | Fc1c(F)c(F)c(-c2c(Cl)nc3ncnn3c2N2CCOCC2)c(F)c1F [Example 199]
3.52 | – | CC1CCCN(c2c(-c3ccc(F)cc3F)c(Cl)nc3ncnn23)C1 (stereo not shown) [Example 189]
3.29 | – | Fc1c(F)c(F)c(-c2c(Cl)nc3ncnn3c2N2CCSCC2)c(F)c1F [Example 209]
2.98 | – | Fc1ccc(-c2c(Cl)nc3ncnn3c2N2CCCCN2)c(C(F)(F)F)c1 [Example 249]
4.09 | – | Fc1c(F)c(F)c(-c2c(Cl)nc3ncnn3c2N2CCCCC2C(F)(F)F)c(F)c1F (stereo not shown) [Example 208]
3.05 | – | Clc1nc2ncnn2c(N2CCCCC2)c1-c1ccccc1 [Example 251]
3.11 | – | Fc1cccc(F)c1-c1c(Cl)nc2ncnn2c1N1CCCCC1C(F)(F)F (stereo not shown) [Example 202]
3.35 | – | CC1CCCCN1c1c(-c2ccccc2)c(Cl)nc2ncnn12 (stereo not shown) [Example 259]
3.05 | – | CC1CCN(c2c(-c3c(F)cc(F)cc3F)c(Cl)nc3ncnn23)NC1 (stereo not shown) [Example 274]
2.03 | – | Clc1nc2ncnn2c(N2CCOCC2)c1-c1ccccc1 [Example 252]
